Patent US20070128217A1 (priority 2003, published 2007)

Experiments:
[1] = tested on: control sera (pooled serum of ten healthy LUMC hospital workers; commercial negative donor pooled serum from the Dutch bloodbank); assay type: binding, human; parameters: Binding of Control serum LUMC to linear peptides / Binding of Control serum Blood-bank to linear peptides / Binding of Control serum LUMC to looped peptides / Binding of Control Serum Blood-Bank to Looped peptides / Binding of Control serum LUMC to linear peptides of the protein M of SARS-CoV Urbani / Binding of Control serum Blood-bank to linear peptides of the protein M of SARS-CoV Urbani / Binding of Control serum LUMC to looped peptides of the protein M of SARS-CoV Urbani / Binding of Control Serum Blood-Bank to Looped peptides of the protein M of SARS-CoV Urbani: unit not given here
[2] = tested on: antibodies in sera from SARS patients (sera 1a, 1b, 2, 6, 37, 62, London, SARS-yellow, SARS-green); assay type: binding, human; parameters: Binding of serum 6 to linear peptides of protein X1 of SARS-CoV Urbani / Binding of serum 37 to linear peptides of protein X1 of SARS-CoV Urbani / Binding of serum 6 to looped/cyclic peptide (PEPSCAN-ELISA) / Binding of serum 37 to looped/cyclic peptide (PEPSCAN-ELISA) / Binding of serum 37 to looped/cyclic peptides of protein X1 of SARS-CoV Urbani / Binding of serum 6 to linear peptides of protein X2 / Binding of serum 37 to linear peptides of protein X2 / Binding of serum 37 to looped/cyclic peptides of protein X2 of SARS-CoV Urbani / Binding of serum 6 to linear peptides of protein M of SARS-CoV Urbani / Binding of serum 37 to linear peptides of protein M of SARS-CoV Urbani / Binding of serum 6 to looped/cyclic peptides of protein M of SARS-CoV Urbani / Binding of serum 37 to looped/cyclic peptides of protein M of SARS-CoV Urbani / Binding of serum 6 to linear peptides of protein X3 of SARS-CoV Urbani / Binding of serum 37 to linear peptides of protein X3 of SARS-CoV Urbani / Binding of serum 37 to looped/cyclic peptides of protein X3 of SARS-CoV Urbani / Binding of serum 6 to linear peptides of protein X4 of SARS-CoV Urbani / Binding of serum 37 to linear peptides of protein X4 of SARS-CoV Urbani / Binding of serum 37 to looped/cyclic peptides of protein X4 of SARS-CoV Urbani / Binding of serum 6 to linear peptides of protein X5 of SARS-CoV Urbani / Binding of serum 37 to linear peptides of protein X5 of SARS-CoV Urbani / Binding of serum 37 to looped/cyclic peptides of protein X5 of SARS-CoV Urbani / Binding of serum 6 to linear peptides of protein N of SARS-CoV Urbani / Binding of serum 37 to linear peptides of protein N of SARS-CoV Urbani / Binding of serum 6 to linear peptide (PEPSCAN-ELISA) / Binding of serum 1a to looped/cyclic peptides of protein N of SARS-CoV Urbani / Binding of serum 1b to looped/cyclic peptides of protein N of SARS-CoV Urbani / Binding of serum 2 to looped/cyclic peptides of protein N of SARS-CoV Urbani / Binding of serum 6 to looped/cyclic peptides of protein N of SARS-CoV Urbani / Binding of serum 37 to looped/cyclic peptides of protein N of SARS-CoV Urbani / Binding of serum 62 to looped/cyclic peptides of protein N of SARS-CoV Urbani / Binding of serum London to looped/cyclic peptides of protein N of SARS-CoV Urbani / Binding of serum SARS-green to looped/cyclic peptides of protein N of SARS-CoV Urbani: unit not given here
[3] = tested on: rabbit serum obtained by immunizing a rabbit with the SARS-CoV strain Frankfurt 1; assay type: binding; parameters: Binding of a rabbit serum to linear peptides / Binding of a rabbit serum to looped peptides / Rabbit serum linear peptides / Rabbit serum looped peptides / Binding of a rabbit serum to linear peptides of protein N of SARS-CoV Urbani (Rabbit serum linear peptides) / Binding of a rabbit serum to looped/cyclic peptides of protein N of SARS-CoV Urbani (Rabbit serum looped peptides): unit not given here
[4] = tested on: recombinant human anti-SARS-CoV antibody 03-018; assay type: binding; parameters: Binding of antibody 03-018 to linear peptides of the N protein of SARS-CoV Urbani / Binding of antibody 03-018 to looped/cyclic peptides of the N protein of SARS-CoV Urbani: unit not given here

| Sequence | Binding of Control Serum Blood-Bank to Looped peptides [1] | Binding of Control serum Blood-bank to linear peptides [1] | Binding of Control serum LUMC to linear peptides [1] | Binding of Control serum LUMC to looped peptides [1] | Binding of serum 1a to linear peptide (PEPSCAN-ELISA) [2] | Binding of serum 1a to looped/cyclic peptides of protein N of SARS-CoV Urbani [2] | Binding of serum 1b to linear peptide (PEPSCAN-ELISA) [2] | Binding of serum 1b to looped/cyclic peptides of protein N of SARS-CoV Urbani [2] | Binding of serum 2 to linear peptide (PEPSCAN-ELISA) [2] | Binding of serum 2 to looped/cyclic peptides of protein N of SARS-CoV Urbani [2] | Binding of serum 6 to looped/cyclic peptides of protein N of SARS-CoV Urbani [2] | Binding of serum 37 to looped/cyclic peptides of protein N of SARS-CoV Urbani [2] | Binding of serum 62 to looped/cyclic peptides of protein N of SARS-CoV Urbani [2] | Binding of serum London to looped/cyclic peptides of protein N of SARS-CoV Urbani [2] | Binding of serum SARS-green to looped/cyclic peptides of protein N of SARS-CoV Urbani [2] | Binding of serum SARS-yellow to looped/cyclic peptides of protein N of SARS-CoV Urbani [2] | Binding of a rabbit serum to linear peptides of protein N of SARS-CoV Urbani (Rabbit serum linear peptides) [3] | Binding of a rabbit serum to looped/cyclic peptides of protein N of SARS-CoV Urbani (Rabbit serum looped peptides) [3] | Binding of antibody 03-018 to linear peptides of the N protein of SARS-CoV Urbani [4] | Binding of antibody 03-018 to looped/cyclic peptides of the N protein of SARS-CoV Urbani [4] | other results |
| --- | --- | --- | --- | --- | --- | --- | --- | --- | --- | --- | --- | --- | --- | --- | --- | --- | --- | --- | --- | --- | --- |
| SKVSGKGQQQQGQTV | 0.8 | 0.6 | 0.7 | 0.8 | 0.2 | 0.4 | 0.1 | 0.2 | 0.3 | 0.7 | 0.4 | 0.6 | 0.6 | 0.8 | 0.5 | 0.6 | 0.1 | 0.6 | 0.1 | 0.2 | Binding of serum 6 to linear peptide (PEPSCAN-ELISA) [2]: 0.1; Binding of serum 37 to linear peptide (PEPSCAN-ELISA) [2]: 0.5; Binding of serum 62 to linear peptide (PEPSCAN-ELISA) [2]: 0.6; Binding of serum London to linear peptide (PEPSCAN-ELISA) [2]: 0.5; Binding of serum SARS-green to linear peptide (PEPSCAN-ELISA) [2]: 0.3; Binding of serum SARS-yellow to linear peptide (PEPSCAN-ELISA) [2]: 0.7 |
| GGPTDSTDNNQNGGR | 0.5 | 0.7 | 0.8 | 0.5 | – | 0.3 | – | 0.1 | – | 0.4 | 0.2 | 0.5 | 0.3 | 0.3 | 0.2 | 0.2 | 0.1 | 0.1 | 0.1 | 0.2 | Binding of serum 1a to linear peptides of protein N of SARS-CoV Urbani [2]: 0.3; Binding of serum 1b to linear peptides of protein N of SARS-CoV Urbani [2]: 0.1; Binding of serum 2 to linear peptides of protein N of SARS-CoV Urbani [2]: 0.3; Binding of serum 6 to linear peptides of protein N of SARS-CoV Urbani [2]: 0.2; Binding of serum 37 to linear peptides of protein N of SARS-CoV Urbani [2]: 0.7; Binding of serum 62 to linear peptides of protein N of SARS-CoV Urbani [2]: 0.7; Binding of serum London to linear peptides of protein N of SARS-CoV Urbani [2]: 0.6; Binding of serum SARS-green to linear peptides of protein N of SARS-CoV Urbani [2]: 0.6; Binding of serum SARS-yellow to linear peptides of protein N of SARS-CoV Urbani [2]: 0.6 |
| TDNNQNGGRNGARPK | 0.5 | 0.9 | 0.8 | 0.5 | – | 0.2 | – | 0.1 | – | 0.2 | 0.2 | 0.4 | 0.2 | 0.3 | 0.1 | 0.3 | 0.2 | 0.4 | 0.2 | 0.2 | Binding of serum 1a to linear peptides of protein N of SARS-CoV Urbani [2]: 0.3; Binding of serum 1b to linear peptides of protein N of SARS-CoV Urbani [2]: 0.2; Binding of serum 2 to linear peptides of protein N of SARS-CoV Urbani [2]: 0.4; Binding of serum 6 to linear peptides of protein N of SARS-CoV Urbani [2]: 0.2; Binding of serum 37 to linear peptides of protein N of SARS-CoV Urbani [2]: 0.8; Binding of serum 62 to linear peptides of protein N of SARS-CoV Urbani [2]: 1.0; Binding of serum London to linear peptides of protein N of SARS-CoV Urbani [2]: 0.6; Binding of serum SARS-green to linear peptides of protein N of SARS-CoV Urbani [2]: 0.8; Binding of serum SARS-yellow to linear peptides of protein N of SARS-CoV Urbani [2]: 0.7 |
| AFGRRGPEQTQGNFG | 0.4 | 0.6 | 0.5 | 0.3 | 0.2 | 0.3 | 0.1 | 0.1 | 0.2 | 0.3 | 0.1 | 0.3 | 0.3 | 0.3 | 0.1 | 0.1 | 0.1 | 0.0 | 0.1 | 0.2 | Binding of serum 6 to linear peptide (PEPSCAN-ELISA) [2]: 0.3; Binding of serum 37 to linear peptide (PEPSCAN-ELISA) [2]: 0.5; Binding of serum 62 to linear peptide (PEPSCAN-ELISA) [2]: 0.7; Binding of serum London to linear peptide (PEPSCAN-ELISA) [2]: 0.8; Binding of serum SARS-green to linear peptide (PEPSCAN-ELISA) [2]: 0.4; Binding of serum SARS-yellow to linear peptide (PEPSCAN-ELISA) [2]: 0.6 |
